Assay results as given in US7138361B2, “Herbicidal heterocycles” (E. I. du Pont de Nemours and Company, priority 2000, dated 2006).

Legend:
Assay in all cases: Test C preemergence
Format in all cases: in vivo
Nightshade [1] = details: scale 0 to 100, 0 no effect, 100 complete control
Sunflower = details: Rate 125 g/ha; scale 0 to 100, 0 no effect, 100 complete control
[2] = system: Surinam grass (Brachiaria decumbens); details: for Plant response rating, Surinam grass: scale 0 to 100, 0 no effect, 100 complete control; for Plant response rating (0 to 100), Surinam grass: preemergence, visual evaluation after 12 to 14 days
How it was run: (§1)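 Plants held in greenhouse for 12–14 days post-application are scored by eye against controls on a 0–100 control scale. Application timing: preemergence on sown seed, or postemergence on 2–18 cm plants.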

[3] = system: bermudagrass (Cynodon dactylon); details: for Plant response rating, Bermudagrass: scale 0 to 100, 0 no effect, 100 complete control; for Plant response rating (0 to 100 where 0 is no effect and 100 is complete control), Bermudagrass: preemergence, visual evaluation after 12 to 14 days
How it was run: as §1

[4] = system: cocklebur (Xanthium strumarium); details: for Plant response rating, Cocklebur: scale 0 to 100, 0 no effect, 100 complete control; for Plant response rating (0 to 100), Cocklebur: preemergence, visual evaluation after 12 to 14 days
How it was run: as §1

[5] = system: common ragweed (Ambrosia elatior); details: for Plant response rating, Ragweed, Common: scale 0 to 100, 0 no effect, 100 complete control
How it was run: as §1

corn (Zea mays) = details: for Plant response rating, Corn: scale 0 to 100, 0 no effect, 100 complete control; for Plant response rating (0 to 100), Corn: preemergence, visual evaluation after 12 to 14 days
How it was run: as §1

[6] = system: crabgrass (Digitaria sanguinalis); details: for Plant response rating, Crabgrass: scale 0 to 100, 0 no effect, 100 complete control; for Plant response rating (0 to 100), Crabgrass: preemergence, visual evaluation after 12 to 14 days
How it was run: as §1

[7] = system: giant foxtail (Setaria faberii); details: for Plant response rating, Foxtail, Giant: scale 0 to 100, 0 no effect, 100 complete control; for Plant response rating (0 to 100), Foxtail, Giant: preemergence, visual evaluation after 12 to 14 days
How it was run: as §1

[8] = system: goosegrass (Eleusine indica); details: for Plant response rating, Goosegrass: scale 0 to 100, 0 no effect, 100 complete control; for Plant response rating (0 to 100), Goosegrass: preemergence, visual evaluation after 12 to 14 days
How it was run: as §1

[9] = system: johnsongrass (Sorghum halepense); details: for Plant response rating, Johnsongrass: scale 0 to 100, 0 no effect, 100 complete control; for Plant response rating (0 to 100), Johnsongrass: preemergence, visual evaluation after 12 to 14 days
How it was run: as §1

kochia (Kochia scoparia) = details: for Plant response rating, Kochia: scale 0 to 100, 0 no effect, 100 complete control; for Plant response rating (0 to 100), Kochia: preemergence, visual evaluation after 12 to 14 days
How it was run: as §1

[10] = system: lambsquarters (Chenopodium album); details: for Plant response rating, Lambsquarters: scale 0 to 100, 0 no effect, 100 complete control
How it was run: as §1

[11] = system: morningglory (Ipomoea hederacea); details: for Plant response rating, Morningglory: scale 0 to 100, 0 no effect, 100 complete control
How it was run: as §1

[12] = system: pigweed (Amaranthus retroflexus); details: for Plant response rating, Pigweed: scale 0 to 100, 0 no effect, 100 complete control
How it was run: as §1

soybean (Glycine max) = details: for Plant response rating, Soybean: scale 0 to 100, 0 no effect, 100 complete control
How it was run: as §1

[13] = system: velvetleaf (Abutilon theophrasti); details: for Plant response rating, Velvetleaf: scale 0 to 100, 0 no effect, 100 complete control
How it was run: as §1

[14] = system: woolly cupgrass (Eriochloa villosa); details: for Plant response rating, Cupgrass, Woolly: scale 0 to 100, 0 no effect, 100 complete control; for Plant response rating (0 to 100), Cupgrass, Woolly: preemergence, visual evaluation after 12 to 14 days
How it was run: as §1

[15] = system: yellow nutsedge (Cyperus esculentus); details: for Plant response rating, Nutsedge: scale 0 to 100, 0 no effect, 100 complete control
How it was run: as §1

Nightshade [16] = details: Rate 500 g/ha, visual evaluation after 12 to 14 days
[17] = preemergence, Rate 500 g/ha, visual evaluation after 12 to 14 days

## CCC(C)c1ccn(C2CCN(c3ccc(C)c(OC)c3)C2=O)n1 (stereo not drawn) [Compound 80]
Nightshade [1]; Rate 62 g/ha
  Plant response rating, Nightshade: 90
Nightshade [1]; Rate 125 g/ha
  Plant response rating, Nightshade: 100
Nightshade [1]; Rate 250 g/ha
  Plant response rating, Nightshade: 100
Sunflower
  Plant response rating, Sunflower: 30
[2]; Rate 62 g/ha
  Plant response rating, Surinam grass: 20
[2]; Rate 125 g/ha
  Plant response rating, Surinam grass: 70
[2]; Rate 250 g/ha
  Plant response rating (0 to 100), Surinam grass: 100
[2]; Rate 500 g/ha
  Plant response rating (0 to 100), Surinam grass: 100
[3]; Rate 62 g/ha
  Plant response rating, Bermudagrass: 100
[3]; Rate 125 g/ha
  Plant response rating, Bermudagrass: 100
[3]; Rate 250 g/ha
  Plant response rating (0 to 100 where 0 is no effect and 100 is complete control), Bermudagrass: 100
[3]; Rate 500 g/ha
  Plant response rating (0 to 100 where 0 is no effect and 100 is complete control), Bermudagrass: 100
[4]; Rate 62 g/ha
  Plant response rating, Cocklebur: 0
[4]; Rate 125 g/ha
  Plant response rating, Cocklebur: 50
[4]; Rate 250 g/ha
  Plant response rating (0 to 100), Cocklebur: 0
[4]; Rate 500 g/ha
  Plant response rating (0 to 100), Cocklebur: 100
[5]; Rate 125 g/ha
  Plant response rating, Ragweed, Common: 100
[5]; [17]
  Plant response rating (0 to 100), Ragweed, Common: 100
[5]; preemergence, Rate 250 g/ha
  Plant response rating, Ragweed, Common: 100
Corn (Zea mays); Rate 62 g/ha
  Plant response rating, Corn: 0
Corn (Zea mays); Rate 125 g/ha
  Plant response rating, Corn: 30
Corn (Zea mays); Rate 250 g/ha
  Plant response rating (0 to 100), Corn: 0
Corn (Zea mays); Rate 500 g/ha
  Plant response rating (0 to 100), Corn: 60
[6]; Rate 62 g/ha
  Plant response rating, Crabgrass: 100
[6]; Rate 125 g/ha
  Plant response rating, Crabgrass: 100
[6]; Rate 250 g/ha
  Plant response rating (0 to 100), Crabgrass: 100
[6]; Rate 500 g/ha
  Plant response rating (0 to 100), Crabgrass: 100
[7]; Rate 62 g/ha
  Plant response rating, Foxtail, Giant: 0
[7]; Rate 125 g/ha
  Plant response rating, Foxtail, Giant: 100
[7]; Rate 250 g/ha
  Plant response rating (0 to 100), Foxtail, Giant: 40
[7]; Rate 500 g/ha
  Plant response rating (0 to 100), Foxtail, Giant: 50
[8]; Rate 62 g/ha
  Plant response rating, Goosegrass: 100
[8]; Rate 125 g/ha
  Plant response rating, Goosegrass: 100
[8]; Rate 250 g/ha
  Plant response rating (0 to 100), Goosegrass: 100
[8]; Rate 500 g/ha
  Plant response rating (0 to 100), Goosegrass: 100
[9]; Rate 62 g/ha
  Plant response rating, Johnsongrass: 20
[9]; Rate 125 g/ha
  Plant response rating, Johnsongrass: 60
[9]; Rate 250 g/ha
  Plant response rating (0 to 100), Johnsongrass: 60
[9]; Rate 500 g/ha
  Plant response rating (0 to 100), Johnsongrass: 70
Kochia (Kochia scoparia); Rate 62 g/ha
  Plant response rating, Kochia: 100
Kochia (Kochia scoparia); Rate 125 g/ha
  Plant response rating, Kochia: 100
Kochia (Kochia scoparia); Rate 250 g/ha
  Plant response rating (0 to 100), Kochia: 100
Kochia (Kochia scoparia); Rate 500 g/ha
  Plant response rating (0 to 100), Kochia: 100
[10]; Rate 62 g/ha
  Plant response rating, Lambsquarters: 100
[10]; Rate 125 g/ha
  Plant response rating, Lambsquarters: 100
[10]; [17]
  Plant response rating (0 to 100), Lambsquarters: 100
[10]; preemergence, Rate 250 g/ha
  Plant response rating, Lambsquarters: 100
[11]; Rate 62 g/ha
  Plant response rating, Morningglory: 0
[11]; Rate 125 g/ha
  Plant response rating, Morningglory: 20
[11]; [17]
  Plant response rating (0 to 100), Morningglory: 100
[11]; preemergence, Rate 250 g/ha
  Plant response rating, Morningglory: 100
[12]; Rate 125 g/ha
  Plant response rating, Pigweed: 0
[12]; [17]
  Plant response rating (0 to 100), Pigweed: 40
[12]; preemergence, Rate 250 g/ha
  Plant response rating, Pigweed: 0
Soybean (Glycine max); Rate 125 g/ha
  Plant response rating, Soybean: 30
Soybean (Glycine max); [17]
  Plant response rating (0 to 100), Soybean: 100
Soybean (Glycine max); preemergence, Rate 250 g/ha
  Plant response rating, Soybean: 50
[13]; Rate 125 g/ha
  Plant response rating, Velvetleaf: 40
[13]; [17]
  Plant response rating (0 to 100), Velvetleaf: 100
[13]; preemergence, Rate 250 g/ha
  Plant response rating, Velvetleaf: 70
[14]; Rate 62 g/ha
  Plant response rating, Cupgrass, Woolly: 90
[14]; Rate 125 g/ha
  Plant response rating, Cupgrass, Woolly: 100
[14]; Rate 250 g/ha
  Plant response rating (0 to 100), Cupgrass, Woolly: 100
[14]; Rate 500 g/ha
  Plant response rating (0 to 100), Cupgrass, Woolly: 100
[15]; Rate 62 g/ha
  Plant response rating, Nutsedge: 0
[15]; Rate 125 g/ha
  Plant response rating, Nutsedge: 20
[15]; [17]
  Plant response rating (0 to 100), Nutsedge: 0
[15]; preemergence, Rate 250 g/ha
  Plant response rating, Nutsedge: 0
Nightshade [16]
  Plant response rating (0 to 100), Nightshade: 100
